Data taken from ChEMBL document CHEMBL4257560, “Synthesis and antiviral activity of camphor-based 1,3-thiazolidin-4-one and thiazole derivatives as Orthopoxvirus-reproduction inhibitors” (Medchemcomm, 2018).

Assays:
Vaccinia virus = test: Antiviral activity against Vaccinia virus Copenhagen infected in African green monkey Vero cells assessed as inhibition of viral reproduction after 4 days by neural red dye-based assay; assay type: functional, organism-based, Orthopoxvirus vaccinia
[1] = Cytotoxicity against African green monkey Vero cells after 4 days by neural red dye-based assay; assay type: cell-based; conditions: chlorocebus sabaeus, read-out: TC50
[2] = Selectivity index, ratio of TC50 for African green monkey Vero cells to IC50 for Vaccinia virus Copenhagen; assay type: toxicity; conditions: read-out: Selectivity Index
[3] = Orthopoxvirus vaccinia, Copenhagen, Vero, 96 h, read-out: IC50

CC1(C)[C@@H]2CC[C@@]1(C)/C(=N/Nc1nc(-c3ccc([N+](=O)[O-])cc3)cs1)C2
IC50 (Vaccinia virus; vero): Not Active | CC50 at 96 h [1]: 261 µM

CC1(C)[C@@H]2CC[C@@]1(C)/C(=N/Nc1nc(-c3ccc(Cl)cc3)cs1)C2
IC50 (Vaccinia virus; [3]): 2.7 µM | CC50 at 96 h [1]: 64.1 µM | selectivity ratio [2]: 24

Nc1ccn(C[C@@H](CO)OCP(=O)(O)O)c(=O)n1 [CIDOFOVIR]
IC50 (Vaccinia virus; [3]): 40 µM | CC50 at 96 h [1]: 475 µM | selectivity ratio [2]: 12

Cc1ccc(-c2csc(N/N=C3\C[C@H]4CC[C@]3(C)C4(C)C)n2)cc1
IC50 (Vaccinia virus; [3]): 4.5 µM | CC50 at 96 h [1]: 13.7 µM | selectivity ratio [2]: 3

CC(C)CCN1C(=O)CS/C1=N\N=C1/C[C@H]2CC[C@]1(C)C2(C)C
IC50 (Vaccinia virus; vero): Not Active | CC50 at 96 h [1]: 37.5 µM

CC1(C)[C@@H]2CC[C@@]1(C)/C(=N/Nc1nc(-c3ccc(F)cc3)cs1)C2
IC50 (Vaccinia virus; vero): Not Active | CC50 at 96 h [1]: 176 µM

C=CCN1C(=O)CS/C1=N\N=C1/C[C@H]2CC[C@]1(C)C2(C)C
IC50 (Vaccinia virus; [3]): 14.4 µM | CC50 at 96 h [1]: 164 µM | selectivity ratio [2]: 11

CCCCN1C(=O)CS/C1=N\N=C1/C[C@H]2CC[C@]1(C)C2(C)C
IC50 (Vaccinia virus; [3]): 3.2 µM | CC50 at 96 h [1]: 25.2 µM | selectivity ratio [2]: 8

CC1(C)[C@@H]2CC[C@@]1(C)/C(=N/Nc1nc(-c3ccc(Br)cc3)cs1)C2
IC50 (Vaccinia virus; [3]): 2.4 µM | CC50 at 96 h [1]: 77.1 µM | selectivity ratio [2]: 32

CC1CCN(CCC(=O)N[C@@H]2C[C@H]3CC[C@]2(C)C3(C)C)CC1
IC50 (Vaccinia virus; [3]): 2.5 µM

CC1(C)[C@@H]2CC[C@@]1(C)/C(=N/N=C1/NC(=O)/C(=C/c3ccccc3)S1)C2
IC50 (Vaccinia virus; [3]): 5.2 µM | CC50 at 96 h [1]: 14.5 µM | selectivity ratio [2]: 3

CC1(C)[C@@H]2CC[C@@]1(C)/C(=N/N=C1\SCC(=O)N1Cc1ccccc1)C2
IC50 (Vaccinia virus; vero): Not Active | CC50 at 96 h [1]: 288 µM

CC1(C)[C@@H]2CC[C@@]1(C)/C(=N/N=C1/NC(=S)CS1)C2
IC50 (Vaccinia virus; [3]): 3.3 µM | CC50 at 96 h [1]: 17.5 µM | selectivity ratio [2]: 5

Cc1ccc(/C=C2\S/C(=N\N=C3/C[C@H]4CC[C@]3(C)C4(C)C)NC2=O)cc1 (stereo in doubt)
IC50 (Vaccinia virus; [3]): 9.5 µM | CC50 at 96 h [1]: 120 µM | selectivity ratio [2]: 13

COc1ccc(-c2csc(N/N=C3\C[C@H]4CC[C@]3(C)C4(C)C)n2)cc1
IC50 (Vaccinia virus; [3]): 3.7 µM | CC50 at 96 h [1]: 93.6 µM | selectivity ratio [2]: 26

CC1(C)[C@@H]2CC[C@@]1(C)/C(=N/NC(N)=S)C2
IC50 (Vaccinia virus; [3]): 17.7 µM | CC50 at 96 h [1]: 225 µM | selectivity ratio [2]: 13

CC1(C)[C@@H]2CC[C@@]1(C)/C(=N/Nc1nc(-c3ccccc3)cs1)C2
IC50 (Vaccinia virus; [3]): 3.2 µM | CC50 at 96 h [1]: 13.9 µM

CC1(C)[C@H]2CC[C@]1(C)[C@H](OC(=O)CCN1CCOCC1)C2
IC50 (Vaccinia virus; [3]): 3.5 µM

CC1(C)[C@@H]2CC[C@@]1(C)/C(=N/N=C1/NC(=O)CS1)C2
IC50 (Vaccinia virus; vero): Not Active | CC50 at 96 h [1]: 305 µM
